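Test compounds were applied to cells in 96-well plates for 48 hours at 5 doses. The concentration for full growth arrest is given as TGI.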
What was measured:
Assay in all cases: inhibition of tumour cell growth, NCI panel, 48 h
KM12 colon = tested on: KM12 colon
A498 renal = tested on: A498 renal
NCI-H522 lung = tested on: NCI-H522 lung
HCT-116 colon = tested on: HCT-116 colon
SK-MEL-28 melanoma = tested on: SK-MEL-28 melanoma
SK-MEL-5 melanoma = tested on: SK-MEL-5 melanoma
HCT-15 colon = tested on: HCT-15 colon
CCRF-CEM leukemia = tested on: CCRF-CEM leukemia
SR leukemia = tested on: SR leukemia
786-0 renal = tested on: 786-0 renal
NCI/ADR-RES ovarian = tested on: NCI/ADR-RES ovarian
HT29 colon = tested on: HT29 colon
MALME-3M melanoma = tested on: MALME-3M melanoma
U251 CNS = tested on: U251 CNS
SN12C renal = tested on: SN12C renal
MDA-MB-435 = tested on: MDA-MB-435
SF-539 CNS = tested on: SF-539 CNS
OVCAR-5 ovarian = tested on: OVCAR-5 ovarian
UO-31 renal = tested on: UO-31 renal
MDA-MB-231 breast = tested on: MDA-MB-231 breast
MCF7 breast = tested on: MCF7 breast
MOLT-4 leukemia = tested on: MOLT-4 leukemia
NCI-H226 lung = tested on: NCI-H226 lung
SNB-19 CNS = tested on: SNB-19 CNS
T-47D breast = tested on: T-47D breast
ACHN renal = tested on: ACHN renal
UACC-257 melanoma = tested on: UACC-257 melanoma
NCI-H23 lung = tested on: NCI-H23 lung
OVCAR-4 ovarian = tested on: OVCAR-4 ovarian
HS 578T breast = tested on: HS 578T breast
RPMI-8226 leukemia = tested on: RPMI-8226 leukemia
RXF 393 renal = tested on: RXF 393 renal
M14 melanoma = tested on: M14 melanoma
DU-145 prostate = tested on: DU-145 prostate
HL-60(TB) leukemia = tested on: HL-60(TB) leukemia
SK-OV-3 ovarian = tested on: SK-OV-3 ovarian
MDA-N = tested on: MDA-N
SF-268 CNS = tested on: SF-268 CNS
CAKI-1 renal = tested on: CAKI-1 renal
TK-10 renal = tested on: TK-10 renal
OVCAR-8 ovarian = tested on: OVCAR-8 ovarian
HCC-2998 colon = tested on: HCC-2998 colon
A549 NSCLC = tested on: A549 NSCLC
K-562 leukemia = tested on: K-562 leukemia
SW-620 colon = tested on: SW-620 colon
EKVX NSCLC = tested on: EKVX NSCLC
LOX IMVI melanoma = tested on: LOX IMVI melanoma
SF-295 CNS = tested on: SF-295 CNS
SNB-75 CNS = tested on: SNB-75 CNS
HOP-92 NSCLC = tested on: HOP-92 NSCLC
IGROV1 ovarian = tested on: IGROV1 ovarian
COLO 205 colon = tested on: COLO 205 colon
HOP-62 NSCLC = tested on: HOP-62 NSCLC
OVCAR-3 ovarian = tested on: OVCAR-3 ovarian
BT-549 breast = tested on: BT-549 breast
UACC-62 melanoma = tested on: UACC-62 melanoma
PC-3 prostate = tested on: PC-3 prostate
SK-MEL-2 melanoma = tested on: SK-MEL-2 melanoma
NCI-H460 lung = tested on: NCI-H460 lung

OCCCN=C1N=C(Cl)/C(=C\c2ccccc2)N1
TGI (KM12 colon): > 100 µM
TGI (A498 renal): > 100 µM
TGI (NCI-H522 lung): > 100 µM
TGI (HCT-116 colon): > 100 µM
TGI (SK-MEL-28 melanoma): > 100 µM
TGI (SK-MEL-5 melanoma): > 100 µM
TGI (HCT-15 colon): > 100 µM
TGI (CCRF-CEM leukemia): > 100 µM
TGI (SR leukemia): > 100 µM
TGI (786-0 renal): > 100 µM
TGI (NCI/ADR-RES ovarian): > 100 µM
TGI (HT29 colon): > 100 µM
TGI (MALME-3M melanoma): > 100 µM
TGI (U251 CNS): > 100 µM
TGI (SN12C renal): > 100 µM
TGI (MDA-MB-435): > 100 µM
TGI (SF-539 CNS): > 100 µM
TGI (OVCAR-5 ovarian): > 100 µM
TGI (UO-31 renal): > 100 µM
TGI (MDA-MB-231 breast): > 100 µM
TGI (MCF7 breast): > 100 µM
TGI (MOLT-4 leukemia): > 100 µM
TGI (NCI-H226 lung): > 100 µM
TGI (SNB-19 CNS): > 100 µM
TGI (T-47D breast): > 100 µM
TGI (ACHN renal): > 100 µM
TGI (UACC-257 melanoma): > 100 µM
TGI (NCI-H23 lung): > 100 µM
TGI (OVCAR-4 ovarian): > 100 µM
TGI (HS 578T breast): > 100 µM
TGI (RPMI-8226 leukemia): > 100 µM
TGI (RXF 393 renal): > 100 µM
TGI (M14 melanoma): > 100 µM
TGI (DU-145 prostate): > 100 µM
TGI (HL-60(TB) leukemia): > 100 µM
TGI (SK-OV-3 ovarian): > 100 µM
TGI (MDA-N): > 100 µM
TGI (SF-268 CNS): > 100 µM
TGI (CAKI-1 renal): > 100 µM
TGI (TK-10 renal): > 100 µM
TGI (OVCAR-8 ovarian): > 100 µM
TGI (HCC-2998 colon): > 100 µM
TGI (A549 NSCLC): > 100 µM
TGI (K-562 leukemia): > 100 µM
TGI (SW-620 colon): > 100 µM
TGI (EKVX NSCLC): > 100 µM
TGI (LOX IMVI melanoma): > 100 µM
TGI (SF-295 CNS): > 100 µM
TGI (SNB-75 CNS): > 100 µM
TGI (HOP-92 NSCLC): > 100 µM
TGI (IGROV1 ovarian): > 100 µM
TGI (COLO 205 colon): > 100 µM

Clc1cccc(/C=c2\nc(-c3ccccc3)n3c2nc2ccccc23)c1
TGI (KM12 colon): > 100 µM
TGI (A498 renal): > 100 µM
TGI (HOP-62 NSCLC): > 100 µM
TGI (HCT-116 colon): > 100 µM
TGI (SK-MEL-28 melanoma): > 100 µM
TGI (SK-MEL-5 melanoma): > 100 µM
TGI (HCT-15 colon): > 100 µM
TGI (CCRF-CEM leukemia): > 100 µM
TGI (OVCAR-3 ovarian): > 100 µM
TGI (SR leukemia): > 100 µM
TGI (786-0 renal): > 100 µM
TGI (NCI/ADR-RES ovarian): > 100 µM
TGI (HT29 colon): > 100 µM
TGI (MALME-3M melanoma): > 100 µM
TGI (U251 CNS): > 100 µM
TGI (BT-549 breast): > 100 µM
TGI (SN12C renal): > 100 µM
TGI (UACC-62 melanoma): > 100 µM
TGI (MDA-MB-435): > 100 µM
TGI (SF-539 CNS): > 100 µM
TGI (OVCAR-5 ovarian): > 100 µM
TGI (UO-31 renal): > 100 µM
TGI (MDA-MB-231 breast): > 100 µM
TGI (MCF7 breast): > 100 µM
TGI (MOLT-4 leukemia): > 100 µM
TGI (NCI-H226 lung): > 100 µM
TGI (SNB-19 CNS): > 100 µM
TGI (UACC-257 melanoma): > 100 µM
TGI (NCI-H23 lung): > 100 µM
TGI (OVCAR-4 ovarian): > 100 µM
TGI (HS 578T breast): > 100 µM
TGI (RPMI-8226 leukemia): > 100 µM
TGI (RXF 393 renal): > 100 µM
TGI (M14 melanoma): > 100 µM
TGI (DU-145 prostate): > 100 µM
TGI (HL-60(TB) leukemia): > 100 µM
TGI (SK-OV-3 ovarian): > 100 µM
TGI (MDA-N): > 100 µM
TGI (SF-268 CNS): > 100 µM
TGI (CAKI-1 renal): > 100 µM
TGI (PC-3 prostate): > 100 µM
TGI (SK-MEL-2 melanoma): > 100 µM
TGI (TK-10 renal): > 100 µM
TGI (NCI-H460 lung): > 100 µM
TGI (OVCAR-8 ovarian): > 100 µM
TGI (A549 NSCLC): > 100 µM
TGI (K-562 leukemia): > 100 µM
TGI (SW-620 colon): > 100 µM
TGI (EKVX NSCLC): > 100 µM
TGI (LOX IMVI melanoma): > 100 µM
TGI (SF-295 CNS): > 100 µM
TGI (SNB-75 CNS): 81.2 µM
TGI (HOP-92 NSCLC): 48.4 µM
TGI (IGROV1 ovarian): > 100 µM
TGI (COLO 205 colon): > 100 µM

Reference: PubChem BioAssay (NCI)
